Experimental findings from patent publication US20130266964A1, “METHOD OF DETECTING ENDOTHELIAL PROGENITOR CELLS” (PURDUE RESEARCH FOUNDATION, priority 2006, published 2013) are described below.

Test [1] addresses T1, cell surface folate receptors on folate receptor positive M109 cells (Mus musculus, UniProt P35846).
T1 construct: cell surface folate receptors on folate receptor positive M109 cells in culture; endogenous in cells; host or cells: M109 cells
Description: fluorescence measurement of binding to cell surface folate receptors on M109 cells in culture. The test is classed as cell-based. As for the experimental part:
AlexaFluor 488 C5-maleimide (Molecular Probes, Eugene, Oreg.) was dissolved in dimethyl sulfoxide (DMSO) (0.5 mg in 50 μl DMSO). A 1.5 molar equivalent (0.57 mg) of Folate-Cys was added to the solution and mixed for 4 hours at room temperature. Folate-Cys-AlexaFluor 488 (Folate-AlexaFluor) was purified by reverse-phase HPLC on a C18 column at a flow rate of 1 ml/min. The mobile phase, consisting of 10 mM NH4HCO3 buffer, pH 7.0 (eluent A) and acetonitrile (eluent B), was maintained at a 99:1 A:B ratio for the first minute and then changed to 1:99 A:B in a linear gradient over the next 29 minutes. Folate-Cys-AlexaFluor 488 eluted at 20 minutes. The product was confirmed by mass spectroscopy and the biologic activity was confirmed by fluorescence measurement of its binding to cell surface folate receptors on folate receptor positive M109 cells in culture.
Texas Red C2-maleimide (Molecular Probes, Eugene, Oreg.) was dissolved in dimethyl sulfoxide (DMSO) (1 mg in 200 μl DMSO). A 1.4 molar equivalent (1 mg) of Folate-Cys was added to the solution and mixed for 4 hours at room temperature. […] The product was confirmed by mass spectroscopy and the biologic activity was confirmed by fluorescence measurement of its binding to cell surface folate receptors on folate receptor positive M109 cells in culture.

Test [2] has as its system folate receptor on CD133+ Flk1+ endothelial progenitor cells. Description: folate-FITC binding to endothelial progenitor cells quantified by flow cytometry. The test is classed as cell-based, BALB/c mice. To be noted: 100 nM folate-FITC. As for the experimental part: Female 6- to 8-week-old BALB/c mice were injected in the peritoneal cavity with either Complete Freund's Adjuvant (CFA; 50-100 μL), Pseudomonas aeruginosa (1×10^7 CFU (colony forming units)), or Yersinia enterocolitica (1×10^6 CFU). Cells were isolated from the peritoneal cavity by lavage with 8 mL of sterile phosphate-buffered saline (PBS) 2-4 days later. The cells were pelleted by centrifugation (400×g, 10 minutes at room temperature) and resuspended in folate-deficient RPMI-1640 media (FD-RPMI; Gibco) containing 10% heat-inactivated fetal bovine serum (FBS), penicillin (100 IU/mL) and streptomycin (100 μg/mL). Peritoneal extracted cells were seeded at densities of 1×10^6 cells/microcentrifuge tube for antibody and folate conjugate studies.
All binding experiments were conducted on ice or in a 4° C. cold room unless indicated otherwise. All antibody labeling was optimized by titration. Optimal labeling was most often achieved with a 1/1000-1/10,000 dilution of the manufacture's stock antibody solution. After cells were labeled with antibodies, the samples were washed twice with PBS to remove non-specific binding. The samples were then incubated with a 100 nM concentration of folate-FITC for 45 minutes. […] All samples were analyzed by flow cytometry using a Becton Dickinson FACS Calibur (BD, Franklin Lakes, N.J.).

T1 sequence (P35846 25-232): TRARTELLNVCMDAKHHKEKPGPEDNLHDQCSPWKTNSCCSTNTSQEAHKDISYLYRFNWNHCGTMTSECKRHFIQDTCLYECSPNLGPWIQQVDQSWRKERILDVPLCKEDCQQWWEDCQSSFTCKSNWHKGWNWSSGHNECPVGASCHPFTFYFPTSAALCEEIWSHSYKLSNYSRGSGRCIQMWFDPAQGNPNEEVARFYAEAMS

In the case of `N=c1ccc2c(-c3ccc(C(=O)NCCCCCN4C(=O)CC(SCC(NC(=O)CCC(NC(=O)c5ccc(NCc6cnc7nc(N)[nH]c(=O)c7n6)cc5)C(=O)O)C(=O)O)C4=O)cc3C(=O)O)c3ccc(N)c(S(=O)(=O)O)c3oc-2c1S(=O)(=O)O` (stereo not shown) [Folate-Cys-AlexaFluor 488], the “biologic activity: binding to cell surface folate receptors” value in test [1] is reported as “confirmed”.

Regarding `Nc1nc2ncc(CNc3ccc(C(=O)NC(CCC(=O)NC(CSC4CC(=O)N(CCNS(=O)(=O)c5ccc(C6=c7cc8c9c(c7Oc7c6cc6c%10c7CCCN%10CCC6)CCC[N+]=9CCC8)c(S(=O)(=O)O)c5)C4=O)C(=O)O)C(=O)O)cc3)nc2c(=O)[nH]1` (stereo not shown) [Folate-Cys-Texas Red], the “biologic activity: binding to cell surface folate receptors” value in test [1] is “confirmed”.

For `Nc1nc2ncc(CNc3ccc(C(=O)NC(CCC(=O)NCCNC(=S)Nc4ccc(C(=O)O)c(-c5c6ccc(=O)cc-6oc6cc(O)ccc56)c4)C(=O)O)cc3)nc2c(=O)[nH]1` (stereo not shown) [folate-FITC], the “binding to CD133+ Flk1+ endothelial progenitor cells” value in test [2] (45 minutes, on ice or 4° C., absence of unlabeled folic acid) was “bound”. The “binding to CD133+ Flk1+ endothelial progenitor cells with competition” value in test [2] (pre-incubation with 100-fold excess of unlabeled folic acid (10 μM)) is “competed”.
